US20230167073A1 (Teijin Pharma Limited, priority 2020, published 2023)

Target: T1, Human TRPC6 (Homo sapiens, UniProt Q9Y210)
T1 construct: expressed in transfected cells
T1 sequence (Q9Y210 1-931): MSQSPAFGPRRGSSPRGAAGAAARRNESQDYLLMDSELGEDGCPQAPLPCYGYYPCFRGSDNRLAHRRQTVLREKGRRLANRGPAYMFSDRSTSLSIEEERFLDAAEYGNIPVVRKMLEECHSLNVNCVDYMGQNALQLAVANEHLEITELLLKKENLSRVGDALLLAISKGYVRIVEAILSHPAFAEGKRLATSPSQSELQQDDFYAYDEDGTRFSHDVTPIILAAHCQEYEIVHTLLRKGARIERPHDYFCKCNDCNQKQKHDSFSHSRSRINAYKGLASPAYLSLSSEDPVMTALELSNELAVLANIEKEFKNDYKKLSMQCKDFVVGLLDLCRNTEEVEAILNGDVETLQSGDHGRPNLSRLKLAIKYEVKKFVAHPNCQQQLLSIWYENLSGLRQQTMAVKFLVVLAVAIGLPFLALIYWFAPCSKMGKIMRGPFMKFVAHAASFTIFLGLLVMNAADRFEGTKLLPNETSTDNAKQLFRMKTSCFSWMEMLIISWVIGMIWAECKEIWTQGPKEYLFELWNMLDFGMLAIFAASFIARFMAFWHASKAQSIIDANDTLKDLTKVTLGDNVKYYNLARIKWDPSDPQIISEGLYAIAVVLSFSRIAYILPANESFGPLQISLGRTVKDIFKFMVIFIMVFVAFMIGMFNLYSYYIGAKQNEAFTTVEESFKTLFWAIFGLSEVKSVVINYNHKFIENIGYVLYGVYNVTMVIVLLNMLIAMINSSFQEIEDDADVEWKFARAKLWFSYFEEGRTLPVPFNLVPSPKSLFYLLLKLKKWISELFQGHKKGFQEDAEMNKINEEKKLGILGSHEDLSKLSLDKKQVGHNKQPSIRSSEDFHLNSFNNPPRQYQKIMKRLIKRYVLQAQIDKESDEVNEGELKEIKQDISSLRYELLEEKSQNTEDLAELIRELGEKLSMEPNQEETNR
Test: Evaluation of TRPC6 channel inhibitory activity (1), FLIPR Calcium 5 Assay Kit, OAG stimulation (Compound Nos. 1-1293)
Assay type: cell-based
Settings: not given
How it was run: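 The FLIPR signal is maximum fluorescence after 30 μM OAG minus minimum before compound, measured in a human TRPC6 stable line loaded with Calcium 5 dye. Compounds were preincubated 20 min. pIC50 came from four-parameter logistic fitting of inhibition rates and is given as symbol ranges.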

Structure (SMILES)	IC50 [nM]
Cc1nc(Oc2cc(C#N)ccc2-c2ncc(CCN)cn2)cc(N2C3CCC2CC3)n1 [compound 671, 4-[5-(2-aminoethyl)pyrimidin-2-yl]-3-[6-(7-azabicyclo[2.2.1]heptan-7-yl)-2-methylpyrimidin-4-yl]oxybenzonitrile]	< 10
Cc1nc(Oc2cc(C#N)ccc2-c2ncc(CN)cn2)cc(N2C3CCC2CC3)n1 [compound 672, 4-[5-(aminomethyl)pyrimidin-2-yl]-3-[6-(7-azabicyclo[2.2.1]heptan-7-yl)-2-methylpyrimidin-4-yl]oxybenzonitrile]	< 10

Same assay, conditions: Human TRPC6 stably-expressing cells, OAG 30 μM, FLIPR Calcium 5 Assay Kit; read-out: Inhibitory activity (pIC50 class) (converted)

IC50 [nM]	Structure (SMILES)
> 1000	Cn1nc(-c2ccccn2)cc1Oc1cc(C#N)ccc1-c1ncc(CNC2(C)COC2)cn1 [compound 665, 4-[5-[[(3-methyloxetan-3-yl)amino]methyl]pyrimidin-2-yl]-3-(2-methyl-5-pyridin-2-ylpyrazol-3-yl)oxybenzonitrile]
> 1000	Cn1nc(-c2ccccn2)cc1Oc1cc(C#N)ccc1-c1ncc(CNC23CC4CC(CC(C4)C2)C3)cn1 [compound 666, 4-[5-[(1-adamantylamino)methyl]pyrimidin-2-yl]-3-(2-methyl-5-pyridin-2-ylpyrazol-3-yl)oxybenzonitrile]
10 to 1000	Cc1nc(Oc2cc(C#N)ccc2-c2ccc(CC3(N)COC3)cn2)cc(N2CCC(F)CC2)n1 [compound 667, 4-[5-[(3-aminooxetan-3-yl)methyl]pyridin-2-yl]-3-[6-(4-fluoropiperidin-1-yl)-2-methylpyrimidin-4-yl]oxybenzonitrile]
< 10	Cc1nc(Oc2cc(C#N)ccc2-c2ncc(CCN)cn2)cc(N2CCC(F)CC2)n1 [compound 668, 4-[5-(2-aminoethyl)pyrimidin-2-yl]-3-[6-(4-fluoropiperidin-1-yl)-2-methylpyrimidin-4-yl]oxybenzonitrile]
10 to 1000	Cc1nc(Oc2cc(C#N)ccc2-c2ncc(CN)cn2)cc(N2CCC(F)CC2)n1 [compound 669, 4-[5-(aminomethyl)pyrimidin-2-yl]-3-[6-(4-fluoropiperidin-1-yl)-2-methylpyrimidin-4-yl]oxybenzonitrile]
> 1000	Cc1nc(Oc2cc(C#N)ccc2-c2ccc(CC3(N)COC3)cn2)cc(N2CCC[C@H]2C#N)n1 [compound 673, (2S)-1-[6-[2-[5-[(3-aminooxetan-3-yl)methyl]pyridin-2-yl]-5-cyanophenoxy]-2-methylpyrimidin-4-yl]pyrrolidine-2-carbonitrile]
10 to 1000	Cc1nc(Oc2cc(C#N)ccc2-c2ncc(CCN)cn2)cc(N2CCC[C@H]2C#N)n1 [compound 674, (2S)-1-[6-[2-[5-(2-aminoethyl)pyrimidin-2-yl]-5-cyanophenoxy]-2-methylpyrimidin-4-yl]pyrrolidine-2-carbonitrile]
10 to 1000	Cc1nc(Oc2cc(C#N)ccc2-c2ncc(CN)cn2)cc(N2CCC[C@H]2C#N)n1 [compound 675, (2S)-1-[6-[2-[5-(aminomethyl)pyrimidin-2-yl]-5-cyanophenoxy]-2-methylpyrimidin-4-yl]pyrrolidine-2-carbonitrile]
> 1000	Cc1cc(Oc2cc(C#N)ccc2-c2ncc(CN)cn2)no1 [compound 676, 4-[5-(aminomethyl)pyrimidin-2-yl]-3-[(5-methyl-1,2-oxazol-3-yl)oxy]benzonitrile]
> 1000	Cc1cc(Oc2cc(C#N)ccc2-c2ncc(CCN)cn2)no1 [compound 677, 4-[5-(2-aminoethyl)pyrimidin-2-yl]-3-[(5-methyl-1,2-oxazol-3-yl)oxy]benzonitrile]
> 1000	Cn1nc2c(c1Oc1cc(C#N)ccc1-c1ncc(CN)cn1)CCC2 [compound 678, 4-[5-(aminomethyl)pyrimidin-2-yl]-3-[(2-methyl-5,6-dihydro-4H-cyclopenta[c]pyrazol-3-yl)oxy]benzonitrile]
> 1000	Cn1nc2c(c1Oc1cc(C#N)ccc1-c1ncc(CN)cn1)COCC2 [compound 679, 4-[5-(aminomethyl)pyrimidin-2-yl]-3-[(2-methyl-6,7-dihydro-4H-pyrano[4,3-c]pyrazol-3-yl)oxy]benzonitrile]
> 1000	Cn1nc(C2CC2)cc1Oc1cc(C#N)ccc1-c1nccc(CN)n1 [compound 680, 4-[4-(aminomethyl)pyrimidin-2-yl]-3-(5-cyclopropyl-2-methylpyrazol-3-yl)oxybenzonitrile]
> 1000	Cc1cc(Oc2cc(C#N)ccc2-c2nccc(CN)n2)cc(N2CCOCC2)n1 [compound 681, 4-[4-(aminomethyl)pyrimidin-2-yl]-3-(2-methyl-6-morpholin-4-ylpyridin-4-yl)oxybenzonitrile]
10 to 1000	Cn1nc(-c2ccccn2)cc1Oc1cc(C#N)ccc1-c1nccc(CN)n1 [compound 682, 4-[4-(aminomethyl)pyrimidin-2-yl]-3-(2-methyl-5-pyridin-2-ylpyrazol-3-yl)oxybenzonitrile]
> 1000	Cn1nc2c(c1Oc1cc(C#N)ccc1-c1cc(CCN)ccn1)CCC2 [compound 683, 4-[4-(2-aminoethyl)pyridin-2-yl]-3-[(2-methyl-5,6-dihydro-4H-cyclopenta[c]pyrazol-3-yl)oxy]benzonitrile]
> 1000	Cn1nc2c(c1Oc1cc(C#N)ccc1-c1ncc(CN)cn1)CCCC2 [compound 684, 4-[5-(aminomethyl)pyrimidin-2-yl]-3-[(2-methyl-4,5.6,7-tetrahydroindazol-3-yl)oxy]benzonitrile]
> 1000	Cn1nc2c(c1Oc1cc(C#N)ccc1-c1nccc(CN)n1)CCCC2 [compound 685, 4-[4-(aminomethyl)pyrimidin-2-yl]-3-[(2-methyl-4,5,6,7-tetrahydroindazol-3-yl)oxy]benzonitrile]
> 1000	Cc1cc(Oc2cc(C#N)ccc2-c2ncc(CCN)cn2)cc(-c2ncccn2)n1 [compound 686, 4-[5-(2-aminoethyl)pyrimidin-2-yl]-3-(2-methyl-6-pyrimidin-2-ylpyridin-4-yl)oxybenzonitrile]
> 1000	Cc1cc(Oc2cc(C#N)ccc2-c2ncc(CCN)cn2)cc(-c2nccn2C)n1 [compound 687, 4-[5-(2-aminoethyl)pyrimidin-2-yl]-3-[2-methyl-6-(1-methylimidazol-2-yl)pyridin-4-yl]oxybenzonitrile]
10 to 1000	Cc1cc(Oc2cc(C#N)ccc2-c2ncc([C@H](O)CN)cn2)cc(-c2ccccn2)n1 [compound 688, 4-[5-[(1S)-2-amino-1-hydroxyethyl]pyrimidin-2-yl]-3-(2-methyl-6-pyridin-2-ylpyridin-4-yl)oxybenzonitrile]
10 to 1000	Cc1cc(Oc2cc(C#N)ccc2-c2ccc([C@H](O)CN)cn2)cc(-c2nccs2)n1 [compound 689, 4-[5-[(1S)-2-amino-1-hydroxyethyl]pyridin-2-yl]-3-[2-methyl-6-(1,3-thiazol-2-yl)pyridin-4-yl]oxybenzonitrile]
10 to 1000	Cc1cc(Oc2cc(C#N)ccc2-c2ccc([C@H](O)CN)cn2)cc(-c2ncco2)n1 [compound 690, 4-[5-[(1S)-2-amino-1-hydroxyethyl]pyridin-2-yl]-3-[2-methyl-6-(1,3-oxazol-2-yl)pyridin-4-yl]oxybenzonitrile]
< 10	Cc1cc(Oc2cc(C#N)ccc2-c2ccc([C@H](O)CN)cn2)cc(-c2ccccn2)n1 [compound 691, 4-[5-[(1S)-2-amino-1-hydroxyethyl]pyridin-2-yl]-3-(2-methyl-6-pyridin-2-ylpyridin-4-yl)oxybenzonitrile]
